Patent publication US8834930B2, “Pulmonary delivery of a fluoroquinolone” (Novartis AG, priority 2008, dated 2014)

Assays:
[1] = Surface properties (BET specific surface area, porosity, rugosity); assay type: physicochemical
Source text: As used herein, specific surface area (SSA) refers to the SSA calculated from gas adsorption data according to a theory developed by Brunauer, Emmett, and Teller (J Amer Chem Soc 1938, 60:309), generally referred to as the BET method.
As used herein, particle porosity refers to the total pore volume in %, calculated from nitrogen gas absorption data. In nitrogen adsorption, the pores are filled (and emptied) according to the Kelvin capillary condensation equation. As the partial pressure of nitrogen increases, condensation of the gas will begin in the smaller pores and progressively fill larger and larger pores until bulk condensation occurs. Using this technique, nitrogen is first condensed in the pores by setting the partial pressure of nitrogen to a value near saturation. Then, the nitrogen is gradually desorbed in a stepwise fashion by reducing its vapor pressure. The pore size distribution is calculated by analyzing the nitrogen desorption isotherm using the Kelvin equation to determine the amount of condensed nitrogen in the pores (assuming a cylindrical pore geometry), wherein the adsorptive loss at each step represents the core volume of pores emptied during that step. The calculation is automated, and follows the algorithm proposed by Barrett et al (Barrett E P, Joyner L G, Halenda P P: The determination of pore volume and area distributions in porous substances I. computations from nitrogen isotherms. J Amer Chem Soc 1951, 73:373-380). This approach holds for pore diameters as small as about 2 nm, i.e., down to the […] region.
Rugosity (Sv) is a measure of the surface roughness of an engineered powder. For the purposes of this invention, rugosity is calculated from the specific surface area obtained from BET measurements, the true density obtained by helium pycnometry, and the surface/volume ratio of the particle obtained by laser diffraction (Sympatec), viz:
Significant increases in specific surface area, porosity, and rugosity Sv are observed for the phospholipid-coated particles relative to micronized drug. […]

[2] = Powder dispersibility, laser diffraction with varied RODOS dispersing pressure; assay type: physicochemical; conditions: dispersing pressure 0.2 bar
Experimental: As used herein, the relative dispersibility of spray-dried powders is determined with the Sympatec (laser diffraction) by varying the dispersing pressure of the RODOS dispersion unit, from about 0.2 bar to 4.0 bar. As used herein, the dispersibility index, δ (delta), is defined as the ratio of the x50 measured at a dispersing pressure of 0.2 bar to that at 4.0 bar.
The relative dispersibility of powder formulations can be studied with the laser diffraction technique by varying the dispersing pressure in the RODOS disperser. […] The ratio of the median particle sizes measured at low and high dispersing pressures is a measure of the dispersibility of the powder.

[3] = background; cited from earlier work

In the case of `O=C(O)c1cn(C2CC2)c2cc(N3CCNCC3)c(F)cc2c1=O` [Lot BXA1GE7], the “Rugosity Sv” value ([1]; API shape factor = 1.27) is reported as 1.1, the “Specific Surface Area” value ([1]; BET) is reported as 4.4 m^2/g and the “Sympatec Sv” value ([1]; laser diffraction) is reported as 4.91 m^2/cm^3.
Work on `O=C(O)c1cn(C2CC2)c2cc(N3CCNCC3)c(F)cc2c1=O` [ciprofloxacin betaine] yielded a x50 [2] of 3.5 μm.
In the case of `O=C(O)c1cn(C2CC2)c2cc(N3CCNCC3)c(F)cc2c1=O` [ciprofloxacin], the pK1 [3] is given as 6.0.
